Test [1] addresses Cytosolic beta-glucosidase (Bos taurus). Description: Inhibition of bovine liver beta-glucosidase at pH 5.5 incubated for 10 to 30 mins using beta-D-glycopyranoside substrate by spectrophotometry.
Test [2] has the same target. The experiment in a line: Inhibition of bovine liver beta-glucosidase at pH 7.3 incubated for 10 to 30 mins using beta-D-glycopyranoside substrate by spectrophotometry.

Usually pKi stands for the Ki on a negative log10 scale, so that one unit is a factor of ten.

Structures are written as SMILES. pKi: −log10 of the molar value.

With `OC[C@H]1O[C@@H]2N=C(SCCCCCCCCCCCCCCCCF)O[C@@H]2[C@@H](O)[C@@H]1O`, the pKi in test [1] was 4.18; in test [2], 4.95.

With `COC(=O)CCCCCCCCCCCCCCCSC1=N[C@H]2O[C@H](CO)[C@@H](O)[C@H](O)[C@H]2O1`, the pKi in test [1] was 4.35; in test [2], 4.58.

Source of the values: BindingDB's records for doi:10.1016/j.ejmech.2014.11.002 (Universitat Rovira I Virgili, 2015).
